# Experimental data published in patent US20230346770A1 (priority 2020, published 2023).
# Assay: Phase 1 crossover drug-drug interaction study, plasma pharmacokinetics in healthy adults
# Settings: for median tmax: both periods
# [1] = Treatment B (with clarithromycin), Period 1
# [2] = Treatment B (with clarithromycin), Period 2
smiles,measurement,setting,value
CNCC[C@@](O)(c1cccc2ccccc12)[C@H](c1ccccc1)c1cc2cc(Br)ccc2nc1OC [M2],AUC72h higher in Period 2 as compared to Period 1,Treatment A,41%
same,AUC240h higher in Period 2 as compared to Period 1,Treatment A,46%
same,Cmax higher in Period 2 as compared to Period 1,Treatment A,36%
same,Cmax (mean),"Treatment A (single dose 100 mg bedaquiline alone), Period 1, n=8",12.0 ng/mL
same,Cmax (mean),"Treatment A (single dose 100 mg bedaquiline alone), Period 2, n=8",16.3 ng/mL
same,AUC72 h (mean),"Treatment A, Period 1",637 ng·h/mL
same,AUC240 h (mean),"Treatment A, Period 1",1839 ng·h/mL
same,"M/P ratio AUC72 h (M2/bedaquiline, corrected for molecular weight)","Treatment A, Period 1",0.0481
same,"M/P ratio AUC240 h (M2/bedaquiline, corrected for molecular weight)","Treatment A, Period 1",0.110
same,"M/P ratio Cmax (M2/bedaquiline, corrected for molecular weight)","Treatment A, Period 1",0.00936
same,tmax (median),"Treatment A, Period 1",12.00 h
same,AUC72 h (mean),"Treatment A, Period 2",898 ng·h/mL
same,AUC240 h (mean),"Treatment A, Period 2",2691 ng·h/mL
same,"M/P ratio AUC72 h (M2/bedaquiline, corrected for molecular weight)","Treatment A, Period 2",0.0670
same,"M/P ratio AUC240 h (M2/bedaquiline, corrected for molecular weight)","Treatment A, Period 2",0.141
same,"M/P ratio Cmax (M2/bedaquiline, corrected for molecular weight)","Treatment A, Period 2",0.0142
same,tmax (median),"Treatment A, Period 2",12.00 h
same,median tmax,Treatment A,12.00 h
same,AUC72h higher in Period 2 as compared to Period 1,Treatment B,2.1 fold
same,AUC240h higher in Period 2 as compared to Period 1,Treatment B,2.1 fold
same,Cmax higher in Period 2 as compared to Period 1,Treatment B,2.2 fold
same,Cmax (mean),"Treatment B (100 mg bedaquiline on Day 5 of clarithromycin 500 mg q12h Days 1-14), Period 1, n=8",4.66 ng/mL
same,Cmax (mean),"Treatment B (100 mg bedaquiline on Day 5 of clarithromycin 500 mg q12h Days 1-14), Period 2, n=8",9.89 ng/mL
same,AUC72 h (mean),[1],260 ng·h/mL
same,AUC240 h (mean),[1],886 ng·h/mL
same,"M/P ratio AUC72 h (M2/bedaquiline, corrected for molecular weight)",[1],0.0183
same,"M/P ratio AUC240 h (M2/bedaquiline, corrected for molecular weight)",[1],0.0460
same,"M/P ratio Cmax (M2/bedaquiline, corrected for molecular weight)",[1],0.0039
same,tmax (median),[1],35.92 h
same,AUC72 h (mean),[2],543 ng·h/mL
same,AUC240 h (mean),[2],1884 ng·h/mL
same,"M/P ratio AUC72 h (M2/bedaquiline, corrected for molecular weight)",[2],0.0347
same,"M/P ratio AUC240 h (M2/bedaquiline, corrected for molecular weight)",[2],0.0881
same,"M/P ratio Cmax (M2/bedaquiline, corrected for molecular weight)",[2],0.00798
same,tmax (median),[2],23.90 h
same,median tmax,Treatment B (with clarithromycin),23.91 h
same,reduction of AUC72h with clarithromycin co-administration,Treatment B vs Treatment A,51%
same,reduction of AUC240h with clarithromycin co-administration,Treatment B vs Treatment A,42%
same,reduction of Cmax with clarithromycin co-administration,Treatment B vs Treatment A,52%
same,reduction of M/P ratio AUC72h with clarithromycin co-administration,Treatment B vs Treatment A,56%
same,reduction of M/P ratio AUC240h with clarithromycin co-administration,Treatment B vs Treatment A,49%
same,reduction of M/P ratio Cmax with clarithromycin co-administration,Treatment B vs Treatment A,52%
same,time of maximum mean plasma concentration,both treatment groups,12 hours post-dose
same,plasma concentration quantifiable until,both treatments,240 hours post-dose
same,pre-dose plasma concentration in Period 2 relative to Cmax after the Period 2 single dose,prior to the Period 2 single dose of bedaquiline (carry-over),> 10%
